According to the supplement of paper PMC5412046:
Where a name gives a salt, the structure may show the parent alone.

Columns and labels:
SB.msgc-1 = test: AC50 for growth inhibition (viability) (log10 M); higher = less potent; settings: SB.msgc-1 (sporadic gastric cancer)
How it was run: (§1)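 In 1536-well plates, each well held 500 patient-derived gastric cancer cells (hereditary or sporadic) in 5 μL medium. Compound in DMSO, 23 nL per well, was pinned in 11 threefold dilutions starting at a final 46 μM. Following 48 h of exposure, cells had CellTiter-Glo for 30 min at room temperature before ViewLux luminescence reading. Only high-quality curve classes from four-parameter fits of DMSO-normalised viability gave the log half-maximal activity concentration.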

SB.mhdgc-1 = test: as above; settings: SB.mhdgc-1 (hereditary c.1380delA CDH1 gastric cancer)
How it was run: as §1

Row | SMILES | AC50 for growth inhibition (log10 M) (SB.msgc-1) | AC50 for growth inhibition (log10 M) (SB.mhdgc-1)
1 | COc1ccc(F)c(F)c1C(=O)c1cnc(NC2CCN([S+](C)(=O)[O-])CC2)nc1N [R-547] | -6.03 | -5.73
2 | CC(C)c1onc(-c2c(Cl)cccc2Cl)c1COc1ccc(/C=C/c2cccc(C(=O)O)c2)c(Cl)c1 [GW-4064X] | -4.73 | -5.33
3 | CN(C1CCc2c(c3ccccc3n2CC(=O)O)C1)[S+](=O)([O-])c1ccc(F)cc1 (centres undefined) | -4.73 | -5.03
4 | O=C(Nc1ccncc1)C(=O)c1cn(Cc2ccc(Cl)cc2)c2ccccc12 [Indibulin] | -5.68 | -6.28
5 | CC(=O)Nc1sc2c(c1-c1nc3ccccc3s1)CNC2 | -4.68 | -6.08
6 | C[C@H](NCc1ccc(OCc2cccc(F)c2)cc1)C(N)=O [Safinamide mesilate] | -4.78 | -5.08
7 | O=C(/C=C/c1cccc([S+](=O)([O-])Nc2ccccc2)c1)NO [Belinostat] | -5.47 | -5.02
8 | CC1(C)C(N(O)C(=O)Nc2ccc(Cl)cc2)N(c2ccc(Cl)cc2)C(=O)N1CC(=O)N/N=C/C=C/c1ccc([N+](=O)[O-])o1 (centres undefined) [Eeyarestatin I] | -5.03 | -5.08
9 | CNc1nccc(-c2cccnc2Oc2cc(C(=O)Nc3cccc(C(F)(F)F)c3)ccc2C)n1 [AMG-Tie2-1] | -4.63 | -4.83
10 | Cc1cnc(Nc2ccc(F)cc2Cl)nc1-c1c[nH]c(C(=O)N[C@H](CO)c2cccc(Cl)c2)c1 | -4.73 | -5.13
11 | CN[C@@H]1[C@H](O)[C@H](NC)[C@H]2O[C@@]3(O)C(=O)C[C@@H](C)O[C@H]3O[C@@H]2[C@H]1O [Spectinomycin hydrochloride] | -6.08 | -5.93
12 | O=C(CCc1ccc(O)cc1)c1c(O)cc(O)cc1O [Phloretin] | -7.13 | -7.33
13 | CC(C)n1nc(-c2ccc3oc(N)nc3c2)c2c(N)ncnc21 [INK-128] | -5.48 | -4.78
14 | C[C@@]12O[C@@H](C[C@]1(O)CO)n1c3ccccc3c3c4c(c5c6ccccc6n2c5c31)CNC4=O [Lestaurtinib] | -5.48 | -6.33
15 | COc1ccc(-c2cc3nccn3c(Nc3ncccc3C(N)=O)n2)cc1OC [BAY61-3606] | -4.98 | -5.53
16 | Cc1nnc(C(C)C)n1[C@@H]1C[C@H]2CC[C@@H](C1)N2CC[C@H](NC(=O)C1CCC(F)(F)CC1)c1ccccc1 [Maraviroc] | -4.78 | -5.18
17 | C=C1/C(=C\C=C2/CCC[C@]3(C)[C@@H]([C@H](C)/C=C/[C@H](C)C(C)C)CC[C@@H]23)C[C@@H](O)C[C@@H]1O [Doxercalciferol] | -6.23 | -6.73
18 | CC(O)(C[S+](=O)([O-])c1ccc(F)cc1)C(=O)Nc1ccc(C#N)c(C(F)(F)F)c1 (centres undefined) [Bicalutamide] | -5.98 | -6.43
19 | CCN1CCN(C(=O)Cc2ccc(Nc3ncc(F)c(Nc4ccc(C(=O)Nc5ccccc5Cl)cc4)n3)cc2)CC1 [Aurora A Inhibitor I] | -4.73 | -4.78
20 | FC1=C(C=C(C\C2=N\NC(=O)C3=C2C=CC=C3)C=C1)C(=O)N4CCN(CC4)C(=O)C5CC5 [Olaparib] | -4.78 | -5.48
21 | COc1cc2c(cc1OC)[C@@H]1Cc3ccc(OC)c(OC)c3CN1CC2 [Rotundine] | -4.73 | -5.28
22 | O=C1c2c(O)cc(O)cc2O[C@H](c2cc(O)c(O)c(O)c2)[C@H]1O [Dihydromyricetin] | -5.23 | -5.33
23 | CN(C)CC[C@H](CSc1ccccc1)Nc1ccc([S+](=O)([O-])NC(=O)c2ccc(N3CCN(Cc4ccccc4-c4ccc(Cl)cc4)CC3)cc2)cc1[N+](=O)[O-] [ABT-737] | -5.03 | -5.43
24 | CCCCc1oc2ccc(NS(C)(=O)=O)cc2c1C(=O)c1ccc(OCCCN(CCCC)CCCC)cc1 [Dronedarone] | -4.63 | -4.73
25 | C[C@]\1(CCS\C(=N1)N)C2=CC(=C(F)C=C2F)C3=CN=CN=C3 | -4.63 | -4.73
26 | C=CC(=O)Nc1cc2c(Nc3ccc(F)c(Cl)c3)ncnc2cc1C#CC(C)(C)N1CCN(C)CC1 [AV-412] | -5.08 | -5.53

Row | SMILES | AC50 for growth inhibition (log10 M) (SB.msgc-1) | AC50 for growth inhibition (log10 M) (SB.mhdgc-1)
27 | COc1cc(C(=O)NC2CCN(C)CC2)ccc1Nc1ncc2c(n1)N(C1CCCC1)CCC(=O)N2C(C)C | -4.73 | -5.13
28 | Cc1cnc(Nc2ccc(CN3CCOCC3)cc2)nc1Nc1cccc([S+](=O)([O-])NC(C)(C)C)c1 [TG-46] | -4.83 | -4.68
29 | O=[N+]([O-])c1cnc(Sc2nnc(O)n2-c2ccc3c(c2)OCCO3)s1 [BI-78D3] | -4.83 | -5.43
30 | Oc1ccc(-c2ccc(-c3cc(Nc4cccc(CNC5CC5)c4)[nH]n3)cc2)c(O)c1 [TCS-2312] | -5.03 | -6.28
31 | c1ccc2c(Cc3c[nH]c4ccccc34)c[nH]c2c1 [Diindolylmethane] | -5.63 | -6.13
32 | N#C/N=C(\NCCCCCCOc1ccc(Cl)cc1)Nc1ccncc1 [GMX-1778] | -6.88 | -8.08
33 | C=CCNC1=C2C[C@@H](C)C[C@H](OC)[C@H](O)[C@@H](C)/C=C(\C)[C@H](OC(N)=O)[C@@H](OC)/C=C\C=C(/C)C(=O)NC(=CC1=O)C2=O [Tanespimycin] | -7.53 | -7.28
34 | C=CCNc1c(O)cc2c(O)c1C[C@@H](C)C[C@H](OC)[C@H](O)[C@@H](C)/C=C(/C)[C@H](OC(N)=O)[C@@H](OC)/C=C\C=C(\C)C(=O)N2 [Retaspimycin] | -7.48 | -6.88
35 | O=C(CCCCCCC(=O)Nc1cccnc1)NO [Pyroxamide] | -5.33 | -5.53
36 | Cl.Nc1ccn([C@@H]2O[C@H](CO)[C@@H](O)C2(F)F)c(=O)n1 [Gemcitabine] | -7.53 | -7.23
37 | CCOC(=O)N1CCN(/[N+]([O-])=N/Oc2ccc([N+](=O)[O-])cc2[N+](=O)[O-])CC1 | -4.88 | -5.23
38 | CC(C)Oc1ccc(C(=O)N[C@H](CNC(=O)CN(C)C)Cc2ccc(-c3cn4cccc([C@H](C)O)c4n3)cc2)cc1Cl | -6.63 | -5.18
39 | CN[C@@H]1C[C@H]2O[C@@](C)([C@@H]1OC)n1c3ccccc3c3c4c(c5c6ccccc6n2c5c31)C(=O)N[C@H]4O [7-Hydroxystaurosporine] | -5.93 | -6.28
40 | CN(C)CCCN\C1=C\2C(=O)N(C)C(=O)\N=C2N(C)C3=C1C=CC=C3 | -4.73 | -5.73
41 | CCCCN1CCC(CNC(=O)c2c3n(c4ccccc24)CCCO3)CC1 [Piboserod hydrochloride] | -5.53 | -5.53
42 | COc1cc2nccc(Oc3ccc(NC(=O)NC4CC4)c(Cl)c3)c2cc1C(N)=O [Lenvatinib] | -5.48 | -6.38
43 | CCCCOc1ccc(CC(=O)NO)cc1 [Bufexamac] | -4.88 | -5.43
44 | CN(C)c1ccc2nc3ccc(N(C)C)cc3[s+]c2c1 [Methylene blue] | -5.33 | -5.83
45 | O=C(NCC1CCCCN1)c1cc(OCC(F)(F)F)ccc1OCC(F)(F)F (centres undefined) [Flecainide] | -5.03 | -5.03
46 | CCC(C)SSc1ncc[nH]1 (centres undefined) [PX-12] | -4.58 | -4.63
47 | NC(CSC(c1ccccc1)(c1ccccc1)c1ccccc1)C(=O)O (stereo in doubt) [S-Trityl-L-cysteine] | -5.03 | -5.58
48 | CC(C)(C)c1nc(-c2cccc(N[S+](=O)([O-])c3c(F)cccc3F)c2F)c(-c2ccnc(N)n2)s1 [Dabrafenib] | -4.88 | -4.73
49 | O=C(O)Cc1cccc(OCCCN(Cc2cccc(C(F)(F)F)c2Cl)CC(c2ccccc2)c2ccccc2)c1 [GSK-3965] | -4.68 | -4.78
50 | CC(C)c1cc(C(=O)N2Cc3ccc(CN4CCN(C)CC4)cc3C2)c(O)cc1O | -6.78 | -6.53
51 | CC(C)Cn1cnc2c(N)nc3ccccc3c21 [Imiquimod] | -4.73 | -5.93
52 | Nc1ccc(C(=O)c2cc3c(ccc4ccccc43)[nH]2)cc1 [IPFK2] | -5.33 | -4.73
